The text below walks through data of BindingDB's records for doi:10.1021/jm900036m (The University of Newcastle, 2009).

Structures are written as SMILES.

As usually defined, the IC50 is the concentration that gives 50% inhibition.

This assay is described as follows: Inhibition of dynamin 1-mediated endocytosis internalization of Tf-A594 in human U2OS cells pretreated for 30 mins.
Regarding `CCCCCCCCNC(=O)/C(C#N)=C/c1c(C)n(CCCN(C)C)c2ccccc12` [2-Cyano-N-octyl-3-[1-(3-dimethylaminopropyl)-2-methyl-1Hindol-3-yl]-acrylamide], the IC50 was 10.8 µM.

Consider `CCCCCCNC(=O)/C(C#N)=C/c1c(C)n(CCCN(C)C)c2ccccc12` [2-Cyano-N-hexyl-3-[1-(3-dimethylaminopropyl)-2-methyl-1Hindol-3-yl]-acrylamide], for which the IC50 was determined as 14.3 µM.

Regarding `CCCCCCCCNC(=O)/C(C#N)=C/c1c(C)n(CCN(C)C)c2ccccc12` [2-Cyano-N-octyl-3-[1-(2-dimethylaminoethyl)-2-methyl-1Hindol-3-yl]-acyrlamide], the IC50 is 13.2 µM.

On to `CCCCCCCCCCNC(=O)/C(C#N)=C/c1c(C)n(CCN(C)C)c2ccccc12` [2-Cyano-N-decyl-3-[1-(2-dimethylaminoethyl)-2-methyl-1Hindol-3-yl]-acrylamide], for which the IC50 was determined as 58.2 µM.

On to `CCCCCCCCNC(=O)/C(C#N)=C/c1cn(CCCN(C)C)c2ccccc12` [2-Cyano-N-octyl-3-(1-(3-dimethylaminopropyl)-1H-indol-3-yl)-acrylamide], for which the IC50 came to 5 µM.
